In patent US12589229B2, “Macroporous solid hard microneedles with embedded particulate drugs” (priority 2021, dated 2026):
Counter-ions that a name gives are not always drawn. Each block holds one compound with its values, some of them ahead of it.

Experiments:
[1] = FTIR spectroscopy of drug encapsulated in resin microneedles (changes during fabrication); type: physicochemical; details: drug encapsulated in cured resin microneedle vs powder
Source text: FTIR spectroscopy was used to evaluate possible changes in the encapsulated drugs during the fabrication process. A Nicolet 6700 (ThermoScientific™; Waltham, MA, USA) with a Smart™ iTX ATR accessory having a diamond crystal was used. […] In FTIR, an increase in the peak intensity usually reflects an increase in the amount (per unit volume) of the functional group associated with the molecular bond, whereas a shift in peak position usually reflects a change in the hybridization state or electron distribution in the molecular bond. […] The peaks at 1721 cm^−1 and 3400 cm^−1 are assigned to the stretching vibrations of C═O and O—H, respectively.

[2] = tested on: circulating B cells; test: In vivo primate study, rituximab IV versus microneedle transdermal delivery, circulating B cells by flow cytometry; set-up: species or system African green monkeys; details: IV dosing, first week
Method: An in vivo primate study was performed to compare the systemic pharmacodynamic effect of rituximab (RTX) following intravenous (IV) delivery versus microneedle-mediated, transdermal (TD) delivery in African green monkeys. […] The pharmacodynamic effect was quantified by the measurement of circulating B cells by flow cytometry (all these graphs are generated by flow cytometry), employing rituximab as a tool compound to assess the ability of a novel microneedle formulation and delivery technology to achieve systemic bioavailability of macromolecules (e.g. monoclonal antibodies) following transdermal delivery. […] The depletion over time for the two patches is shown in FIG. 29 for 0, 1, 7, 14 and 21 days.

[3] = tested on: CD20+ cells; test: In vitro whole blood assay with RTX-loaded microneedle patches, flow cytometry; type: cell-based, human
Method: To evaluate the effectiveness of the treatment being delivered through microneedles an in vitro model, a whole blood assay was performed using Rituximab (RTX) as the drug. Rituximab is a chimeric monoclonal antibody against the protein CD20, which is primarily found on the surface of immune system B cells. When it binds to this protein it triggers cell death via Complement-Dependent Cytotoxicity (CDC). RTX is a good model to evaluate the mAb delivery mechanism mainly because of its clear pharmacodynamics outcome, the depletion of CD20+B-Cell in whole blood. Microneedle patches with five different amounts of RTX and a constant polymer-to-drug ratio were incubated in freshly collected human blood in a 24-well plate. Flow cytometry was used to quantify CD20+ and CD19+ cells in each well. […] CD20+ cells are present in samples (a) through (c) on the left but absent from samples (d) through (f) on the right. The conditions are as follows: (a) Buffy coat and serum without microneedle (MN) exposure and prior to incubation; (b) Blood without MN exposure and after 4 h incubation; (c) Blood with exposure to an inert MN after incubation; (d) Blood after incubation with one MN (20 μg RTX); (e) blood after incubation with five MNs (100 μg RTX); and (f) blood after incubation with 200 MNs (4 mg RTX). […]

[4] = In vitro dye release from dye-loaded microneedle patch into parafilm-covered gelatin; type: physicochemical; details: 10% gelatin covered with parafilm
Method: In order to show in vitro release of the microneedles visually, a resin/dye paste was prepared. A biocompatible resin (Dental SG) from Formlabs (Somerville, MA, USA) and sulforhodamine B (SKU: 230162-5G, MilliporeSigma; Burlington, MA, USA) as dye were used. Due to the small size of the microneedles, the dye particles were ground into finer particles with smaller sizes. The encapsulation of unground and ground dye in microneedles was compared by preparing microneedles with both unground and ground sulforhodamine B particles. The unground and ground particles of the dye are shown in FIGS. 35a and 35b, respectively, and the size distribution of the unground and ground dye is shown in FIG. 35c. On average, the unground and ground dye particles had particle sizes of about 50 micrometers and 6 micrometers, respectively. […] A solid acrylic ring was added around the substrate so that the microneedle patch could be held and applied easily (see FIG. 35g). The in vitro dye release experiment is shown schematically in FIG. 35h. A 10% gelatin (gelatin from porcine skin, SKU: G2500-1KG from Millipore Sigma) solution was prepared as a model tissue and was poured in a petri dish. Then, it was placed in the refrigerator for 20 minutes to further solidify. A thin layer of parafilm (Parafilm ° M, Amcor; Zurich, Switzerland) was then used as a skin model to cover the gelatin solution in the petri dish.

Compound: CCN(CC)CC(=O)Nc1c(C)cccc1C [lidocaine, lidocaine hydrochloride monohydrate]
chemical structure during the fabrication process (FTIR) [1]: remained unchanged

Compound: Rituximab
B-cell depletion in blood [2]: most significant B-cell depletion
activity of RTX after completion of the microneedle patch manufacturing process [3]: preserved

release of the dye into the gelatin solution [4]: visible release
Compound: CCN(CC)c1ccc2c(-c3ccc(S(=O)(=O)O)cc3S(=O)(=O)[O-])c3ccc(=[N+](CC)CC)cc-3oc2c1 [sulforhodamine B]

chemical structure during the fabrication process (FTIR) [1]: remained unchanged
Compound: CC(C)Cc1ccc(C(C)C(=O)[O-])cc1.[Na+] (centres unmarked) [ibuprofen, ibuprofen sodium salt]
